{"source": "ChEMBL document CHEMBL6134848", "about": "“Deuteration Strategy-Inspired Design of Novel Diarylpyrimidine Derivatives as Potent Non-Nucleoside Reverse Transcriptase Inhibitors Featuring Improved Efficacy, Selectivity, and Druggability” (J Med Chem, 2025)", "key": {"[1]": {"system": "Human immunodeficiency virus 1", "assay": "Antiviral activity against drug-resistant HIV-1 harboring RT F227L/V106A mutant infected in human MT4 cells assessed as protection against virus-induced cytopathicity measured after 5 days post-infection by MTT assay", "format": "functional, organism-based", "conditions": "Human immunodeficiency virus 1, MT4, 120 h"}, "[2]": {"assay": "Acute toxicity in ICR mouse assessed as pathological change in spleen at 2000 mg/kg, IG measured for 14 days by H and E staining based analysis", "format": "organism-based", "conditions": "in vivo, po, 336 h, time 14 day"}, "[3]": {"assay": "MRT (0 to infinity) in Sprague-Dawley rat at 1 mg/kg, iv measured for 0.083 to 24 hrs by LC-MS/MS analysis", "format": "ADME, organism-based", "conditions": "in vivo, time 0.083-24 hrs"}, "[4]": {"system": "Human immunodeficiency virus 1", "assay": "Potency index, ratio of ETR EC50 to test compound EC50 for antiviral activity against wild-type HIV-1 IIIB infected in human MT4 cells assessed as protection against virus-induced cytopathicity measured after 5 days post-infection by MTT assay", "format": "functional"}, "[5]": {"system": "Human immunodeficiency virus 1", "assay": "Antiviral activity against drug-resistant HIV-1 harboring RT K103N mutant infected in human MT4 cells assessed as protection against virus-induced cytopathicity measured after 5 days post-infection by MTT assay", "format": "functional, organism-based", "conditions": "Human immunodeficiency virus 1, MT4, 120 h"}, "[6]": {"assay": "Acute toxicity in ICR mouse assessed as body weight change at 2000 mg/kg, IG measured for 14 days", "format": "organism-based", "conditions": "in vivo, po, 336 h, time 14 day"}, "Cytochrome P450 2C9": {"molecular_target": "Cytochrome P450 2C9 (Homo sapiens, UniProt P11712)", "sequence (P11712 whole entry)": "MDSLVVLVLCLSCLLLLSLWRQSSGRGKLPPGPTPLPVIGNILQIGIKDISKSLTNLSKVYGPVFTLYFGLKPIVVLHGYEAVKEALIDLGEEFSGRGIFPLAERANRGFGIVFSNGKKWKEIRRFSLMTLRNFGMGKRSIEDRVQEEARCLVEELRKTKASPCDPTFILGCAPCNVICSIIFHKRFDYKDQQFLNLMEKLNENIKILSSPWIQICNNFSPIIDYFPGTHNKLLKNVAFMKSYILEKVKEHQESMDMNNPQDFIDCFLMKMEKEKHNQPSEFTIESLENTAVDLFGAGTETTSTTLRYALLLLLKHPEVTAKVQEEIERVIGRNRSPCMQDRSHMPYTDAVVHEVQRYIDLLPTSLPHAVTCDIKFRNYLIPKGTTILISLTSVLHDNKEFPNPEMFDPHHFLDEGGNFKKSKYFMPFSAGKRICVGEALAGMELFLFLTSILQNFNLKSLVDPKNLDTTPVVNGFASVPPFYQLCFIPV", "assay": "Inhibition of CYP2C9 in human liver microsomes using diclofenac as substrate incubated for 15 to 45 mins by", "format": "ADME, Microsome"}, "[7]": {"assay": "Stability in human plasma assessed as compound remaining at 1 uM measured after 1 hr by LC-MS/MS analysis", "format": "ADME, cell-free", "conditions": "read-out: Stability"}, "[8]": {"assay": "Acute toxicity in ICR mouse assessed as pathological change in brain at 2000 mg/kg, IG measured for 14 days by H and E staining based analysis", "format": "organism-based", "conditions": "in vivo, po, 336 h, time 14 day"}, "[9]": {"assay": "MRT (0 to t) in Sprague-Dawley rat at 10 mg/kg, po measured for 0.083 to 24 hrs by LC-MS/MS analysis", "format": "ADME, organism-based", "conditions": "in vivo, time 0.083-24 hrs"}, "[10]": {"system": "Human immunodeficiency virus 1", "assay": "Potency index, ratio of NVP EC50 to test compound EC50 for antiviral activity against wild-type HIV-1 IIIB infected in human MT4 cells assessed as protection against virus-induced cytopathicity measured after 5 days post-infection by MTT assay", "format": "functional"}, "Cytochrome P450 2C19": {"molecular_target": "Cytochrome P450 2C19 (Homo sapiens, UniProt P33261)", "sequence (P33261 whole entry)": "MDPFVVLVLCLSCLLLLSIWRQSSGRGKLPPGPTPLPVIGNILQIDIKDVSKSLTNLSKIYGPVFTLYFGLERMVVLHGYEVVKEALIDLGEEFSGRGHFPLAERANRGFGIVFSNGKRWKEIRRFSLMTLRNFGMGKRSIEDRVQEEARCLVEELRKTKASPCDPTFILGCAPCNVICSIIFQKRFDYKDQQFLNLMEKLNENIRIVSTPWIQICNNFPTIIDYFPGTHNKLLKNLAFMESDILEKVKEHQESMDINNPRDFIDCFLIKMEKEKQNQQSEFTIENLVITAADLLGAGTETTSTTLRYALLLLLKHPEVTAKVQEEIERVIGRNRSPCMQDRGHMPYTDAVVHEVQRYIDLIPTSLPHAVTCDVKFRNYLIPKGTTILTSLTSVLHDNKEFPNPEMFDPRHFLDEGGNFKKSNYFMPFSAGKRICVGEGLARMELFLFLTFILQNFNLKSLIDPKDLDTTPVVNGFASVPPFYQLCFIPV", "assay": "Inhibition of CYP2C19 in human liver microsomes using S-mephenytoin as substrate incubated for 15 to 45 mins by", "format": "ADME, Microsome"}, "[11]": {"assay": "Protein binding in human plasma at 1 uM incubated for 6 hrs", "format": "ADME, cell-free", "conditions": "read-out: PPB (converted)"}, "[12]": {"assay": "AUC (0 to infinity) in Sprague-Dawley rat at 1 mg/kg, iv measured for 0.083 to 24 hrs by LC-MS/MS analysis", "format": "ADME, organism-based", "conditions": "in vivo, time 0.083-24 hrs"}, "[13]": {"assay": "Acute toxicity in ICR mouse assessed as animal mortality at 2000 mg/kg, IG measured for 14 days", "format": "organism-based", "conditions": "in vivo, po, 336 h, time 14 day"}, "[14]": {"system": "Human immunodeficiency virus 1", "assay": "Potency index, ratio of EFV EC50 to test compound EC50 for antiviral activity against wild-type HIV-1 IIIB infected in human MT4 cells assessed as protection against virus-induced cytopathicity measured after 5 days post-infection by MTT assay", "format": "functional"}, "[15]": {"assay": "Stability in human plasma assessed as compound remaining at 1 uM measured after 3 hrs by LC-MS/MS analysis", "format": "ADME, cell-free", "conditions": "read-out: Stability"}, "[16]": {"assay": "Tmax in Sprague-Dawley rat at 1 mg/kg, iv measured for 0.083 to 24 hrs by LC-MS/MS analysis", "format": "ADME, organism-based", "conditions": "in vivo, time 0.083-24 hrs"}, "[17]": {"assay": "Drug metabolism in dog liver microsomes assessed as metabolic fraction at 1 uM measured up to 45 mins by LC/MS/MS analysis", "format": "ADME, Canis lupus familiaris, Microsome", "conditions": "microsomes, 0.75 h, 1 µM"}, "[18]": {"assay": "Acute toxicity in ICR mouse assessed as pathological change in kidney at 2000 mg/kg, IG measured for 14 days by H and E staining based analysis", "format": "organism-based", "conditions": "in vivo, po, 336 h, time 14 day"}, "Cytochrome P450 2D6": {"molecular_target": "Cytochrome P450 2D6 (Homo sapiens, UniProt P10635)", "sequence (P10635 whole entry)": "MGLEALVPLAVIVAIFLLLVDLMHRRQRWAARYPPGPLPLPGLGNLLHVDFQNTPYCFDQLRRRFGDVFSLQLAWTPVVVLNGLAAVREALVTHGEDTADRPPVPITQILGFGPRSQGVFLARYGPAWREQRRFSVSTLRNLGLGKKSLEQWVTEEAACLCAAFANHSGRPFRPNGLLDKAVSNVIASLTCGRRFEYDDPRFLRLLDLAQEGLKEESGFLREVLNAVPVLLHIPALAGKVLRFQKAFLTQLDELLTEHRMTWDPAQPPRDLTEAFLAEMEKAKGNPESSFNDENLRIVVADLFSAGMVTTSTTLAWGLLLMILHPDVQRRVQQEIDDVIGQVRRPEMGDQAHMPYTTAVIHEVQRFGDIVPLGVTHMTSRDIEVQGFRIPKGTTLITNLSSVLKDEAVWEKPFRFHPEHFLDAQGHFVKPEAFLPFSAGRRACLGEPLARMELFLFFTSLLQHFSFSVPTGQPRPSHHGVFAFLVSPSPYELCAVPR", "assay": "Inhibition of CYP2D6 in human liver microsomes using dextromethorphan as substrate incubated for 15 to 45 mins by", "format": "ADME, Microsome"}, "[19]": {"assay": "Metabolic stability in human liver microsomes assessed as half life at 1 uM measured up to 45 mins by LC/MS/MS analysis", "format": "ADME, Microsome", "conditions": "microsomes, 0.75 h, 1 µM"}, "[20]": {"assay": "Acute toxicity in ICR mouse assessed as drug tolerance at 2000 mg/kg, IG measured for 14 days", "format": "organism-based", "conditions": "in vivo, po, 336 h, time 14 day"}, "[21]": {"assay": "Cytotoxicity against human MT4 cells assessed as reduction in cell viability by MTT assay", "format": "toxicity, cell-based"}, "Cytochrome P450 1A2": {"molecular_target": "T1, Cytochrome P450 1A2 (Homo sapiens, UniProt P05177)", "T1 sequence (P05177 whole entry)": "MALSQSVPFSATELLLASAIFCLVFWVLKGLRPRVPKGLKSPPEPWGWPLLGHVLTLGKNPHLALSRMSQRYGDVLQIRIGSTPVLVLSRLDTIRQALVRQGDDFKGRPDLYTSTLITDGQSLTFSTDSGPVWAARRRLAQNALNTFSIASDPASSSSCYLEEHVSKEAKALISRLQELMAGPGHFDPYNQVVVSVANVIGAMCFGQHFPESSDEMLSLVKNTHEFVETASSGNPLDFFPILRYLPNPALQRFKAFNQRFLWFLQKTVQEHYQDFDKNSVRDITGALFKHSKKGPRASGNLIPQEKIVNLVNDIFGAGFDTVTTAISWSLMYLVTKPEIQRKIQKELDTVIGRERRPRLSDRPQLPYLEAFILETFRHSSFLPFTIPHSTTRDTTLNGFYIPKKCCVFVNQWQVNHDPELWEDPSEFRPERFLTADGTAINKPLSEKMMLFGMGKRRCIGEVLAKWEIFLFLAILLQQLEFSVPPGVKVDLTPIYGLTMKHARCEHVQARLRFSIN", "assay": "Inhibition of CYP1A2 in human liver microsomes using phenacetin as substrate incubated for 15 to 45 mins by", "format": "ADME, Microsome"}, "[22]": {"system": "Human immunodeficiency virus 1", "assay": "Antiviral activity against drug-resistant HIV-1 harboring RT Y181C mutant infected in human MT4 cells assessed as protection against virus-induced cytopathicity measured after 5 days post-infection by MTT assay", "format": "functional, organism-based", "conditions": "Human immunodeficiency virus 1, MT4, 120 h"}, "[23]": {"assay": "Clearance in Sprague-Dawley rat at 1 mg/kg, iv measured for 0.083 to 24 hrs by LC-MS/MS analysis", "format": "ADME, organism-based", "conditions": "in vivo, time 0.083-24 hrs"}, "[24]": {"assay": "Stability in human plasma assessed as compound remaining at 1 uM measured immediately by LC-MS/MS analysis", "format": "ADME, cell-free", "conditions": "read-out: Stability"}, "[25]": {"assay": "Protein binding in human plasma assessed as drug recovery rate at 1 uM incubated for 6 hrs", "format": "ADME, cell-free", "conditions": "read-out: Drug recovery"}, "[26]": {"assay": "Half life in Sprague-Dawley rat at 1 mg/kg, iv measured for 0.083 to 24 hrs by LC-MS/MS analysis", "format": "ADME, organism-based", "conditions": "in vivo, time 0.083-24 hrs"}, "[27]": {"system": "Human immunodeficiency virus 1", "assay": "Antiviral activity against drug-resistant HIV-1 harboring RT Y188L mutant infected in human MT4 cells assessed as protection against virus-induced cytopathicity measured after 5 days post-infection by MTT assay", "format": "functional, organism-based", "conditions": "Human immunodeficiency virus 1, MT4, 120 h"}, "[28]": {"assay": "AUC (0 to t) in Sprague-Dawley rat at 1 mg/kg, iv measured for 0.083 to 24 hrs by LC-MS/MS analysis", "format": "ADME, organism-based", "conditions": "in vivo, time 0.083-24 hrs"}, "[29]": {"assay": "Half life in Sprague-Dawley rat at 10 mg/kg, po measured for 0.083 to 24 hrs by LC-MS/MS analysis", "format": "ADME, organism-based", "conditions": "in vivo, time 0.083-24 hrs"}}, "note": "pEC50, pIC50: −log10 of the molar value."}
{"smiles": "[2H]C([2H])([2H])c1cc(C#N)cc(C([2H])([2H])[2H])c1Oc1nc(NC2CCN(Cc3ccc(S(N)(=O)=O)cc3)CC2)nc2ccsc12", "values": [{"measurement": "pEC50", "setting": "[1]", "result": 8.35}, {"measurement": "Activity", "setting": "[2]", "result": "Non-toxic"}, {"measurement": "MRT inf", "setting": "[3]", "result": 50.4, "unit": "min"}, {"measurement": "Ratio EC50", "setting": "[4]", "result": 3.3}, {"measurement": "pEC50", "setting": "[5]", "result": 8.95}, {"measurement": "Activity", "setting": "[6]", "result": "Non-toxic"}, {"measurement": "pIC50", "setting": "Cytochrome P450 2C9", "result": "< 5.00"}, {"measurement": "remaining at 1 h, 1 µM", "setting": "[7]", "result": 96.5, "unit": "%"}, {"measurement": "Activity", "setting": "[8]", "result": "Non-toxic"}, {"measurement": "MRT last", "setting": "[9]", "result": 143, "unit": "min"}, {"measurement": "Ratio EC50", "setting": "[10]", "result": 256}, {"measurement": "pIC50", "setting": "Cytochrome P450 2C19", "result": "< 5.00"}, {"measurement": "fraction unbound at 6 h, 1 µM", "setting": "[11]", "result": 0.005}, {"measurement": "AUC(0-inf)", "setting": "[12]", "result": 729, "unit": "ng·h/mL"}, {"measurement": "Activity", "setting": "[13]", "result": "Non-toxic"}, {"measurement": "Ratio EC50", "setting": "[14]", "result": 5}, {"measurement": "remaining at 3 h, 1 µM", "setting": "[15]", "result": 92.2, "unit": "%"}, {"measurement": "Tmax", "setting": "[16]", "result": 4.8, "unit": "min"}, {"measurement": "Fm", "setting": "[17]", "result": 17.3, "unit": "%"}, {"measurement": "Activity", "setting": "[18]", "result": "Non-toxic"}, {"measurement": "pIC50", "setting": "Cytochrome P450 2D6", "result": "< 5.00"}, {"measurement": "t1/2", "setting": "[19]", "result": 18.6, "unit": "min"}, {"measurement": "Activity", "setting": "[20]", "result": "Non-toxic"}, {"measurement": "CC50", "setting": "[21]", "result": "> 225000", "unit": "nM"}, {"measurement": "pIC50", "setting": "Cytochrome P450 1A2", "result": "< 5.00"}, {"measurement": "pEC50", "setting": "[22]", "result": 8.23}, {"measurement": "clearance", "setting": "[23]", "result": 22.9, "unit": "mL/min/kg"}, {"measurement": "remaining at 0 h, 1 µM", "setting": "[24]", "result": 100, "unit": "%"}, {"measurement": "recovery at 6 h, 1 µM", "setting": "[25]", "result": 79.4, "unit": "%"}, {"measurement": "half-life", "setting": "[26]", "result": 58.2, "unit": "min"}, {"measurement": "pEC50", "setting": "[27]", "result": 8.29}, {"measurement": "AUC(0-t)", "setting": "[28]", "result": 727, "unit": "ng·h/mL"}, {"measurement": "half-life", "setting": "[29]", "result": 94.8, "unit": "min"}]}
